# Results from publication PMC8905580, “Aggregation Behavior of Structurally Similar Therapeutic Peptides Investigated by ^1H NMR and All-Atom Molecular Dynamics Simulations” (Molecular Pharmaceutics, 2022).
# Square brackets hold non-standard residues; d marks the D form. Peptide text beside a SMILES is read from it. * marks the point of attachment. dPhe(4-NHCONH2) = NC(=O)Nc1ccc(C[C@@H](N)C(=O)O)cc1; Dihydroorotyl(S) = O=C1C[C@@H](C(=O)*)NC(=O)N1; dPhe(4-Cl) = N[C@H](Cc1ccc(Cl)cc1)C(=O)O; Phe(4-NH2) = Nc1ccc(C[C@H](N)C(=O)O)cc1; d2Nal = N[C@H](Cc1ccc2ccccc2c1)C(=O)O; Lys(iPr) = CC(C)NCCCC[C@H](N)C(=O)O; d3Pal = N[C@H](Cc1cccnc1)C(=O)O
# Experiments:
# [1] = Approximate sample pH by pH indicator strips; type: physicochemical; conditions: all concentrations and time points investigated, H2O
# [2] = 1H NMR in neat H2O, aggregation with concentration and time; type: physicochemical
# Description: (§1) ^1H NMR experiments were performed at peptide concentrations of 0.1, 0.5, 1, 2, 5, and 10 mM in 100% H2O. Peptide solutions were prepared in glass vials without pH adjustments, as the addition of concentrated acid or base results in local pH variations that might induce aggregation. Diffusion NMR experiments were performed at peptide concentrations of 3 and 10 mM in 100% D2O. Thus, the diffusion NMR results may not be perfectly representative of the situation in the samples in H2O, but general conclusions can still be drawn.
# (§2) The samples were gently agitated, by manual swirling, until the solution appeared visually homogeneous and 450 μL of each sample was transferred to disposable 5 mm NMR tubes (Type 5TA 178 mm from Teknolab Sorbent, Sweden). Aliquots were pipetted slowly to reduce the risk of possible shear-induced aggregation. The time between sample preparation and the start of the NMR measurement was around 15 min. On selected samples, the approximate pH was assessed with pH indicator strips (Scharlau, pH 2.0–9.0, TP0209000S) after aliquots for the NMR samples were taken out.
# NMR experiments were performed at 25 °C on either a Varian Unity Inova 500 MHz spectrometer equipped with a Z-spec DBG500-5EF 5 mm dual broadband gradient probe or a Bruker AVANCE III HD 500 MHz spectrometer equipped with a BBO probe, Bruker SMART probe. Spectra were recorded with an excitation sculpting sequence for solvent suppression.[40] […] On the Varian, 300 scans were used on samples of 0.1–1 mM and 64 on 1–10 mM (1 mM was measured using both settings to bridge the concentration series and ensure comparability), which gave adequate signal for unaggregated samples. […]
# The absolute integral values (IntC), at each investigated concentration, for signals arising from the methyl groups of leucine (6H; for D-Phe^6-GnRH, cetrorelix, and degarelix) or nor-leucine (3H; for ozarelix) were determined. […] Additionally, IntC of the signal from the acetate counterion (a singlet) were determined for all peptides. […]
# [3] = design: method as in PMID 33586081; conditions: seen as reduction in total detectable signal and decrease in fraction of sharp signals; cited from earlier work
# [4] = Visual inspection of samples for turbidity and viscosity; type: physicochemical; conditions: all samples 0.1-10 mM acetate salt in 100% H2O, no buffer, no pH adjustment; NMR tube in light box compared with pure water; room temperature
# Description: as §1, §2
# The NMR tubes containing samples were visually inspected in a light box and compared to an NMR tube containing pure water to simplify identification of visually detectable aggregates.
structure (smiles),measurement,setting,value
CC(=O)N[C@H](Cc1ccc2ccccc2c1)C(=O)N[C@H](Cc1ccc(Cl)cc1)C(=O)N[C@H](Cc1cccnc1)C(=O)N[C@@H](CO)C(=O)N[C@@H](Cc1ccc(NC(=O)[C@@H]2CC(=O)NC(=O)N2)cc1)C(=O)N[C@H](Cc1ccc(NC(N)=O)cc1)C(=O)N[C@@H](CC(C)C)C(=O)N[C@@H](CCCCNC(C)C)C(=O)N1CCC[C@H]1C(=O)N[C@H](C)C(N)=O [degarelix] (Ac-[d2Nal][dPhe(4-Cl)][d3Pal]S[Phe(4-NH2)](Dihydroorotyl(S))[dPhe(4-NHCONH2)]L[Lys(iPr)]P[dA]-NH2),Sample pH,[1],~ 5.5
same,Concentration at which a distinct group of broad peaks at 1.2-1.6 ppm (intermediately sized aggregates) appears,"[2]; 1H NMR, 25 °C, 100% H2O",≥ 1 mM
same,"Change of 1H NMR spectra over time, 5 and 10 mM samples","[2]; 5 and 10 mM in 100% H2O, over investigated timespan (ozarelix: rapid 4 scan experiments about 15 and 25 min after preparation, 24 h)",increased notably in intensity
same,Fate of acetate counterions in the peptide aggregates formed (1H NMR acetate signal),"[2]; acetate salts, 0.1-10 mM in 100% H2O, 25 °C",exclusion
same,Effect of buffer or background salt on aggregation (1H NMR),[3],strongly enhance aggregation
same,Visual appearance of samples over the investigated time span,[4],visually clear
